Structures can show the parent of a compound that is named as a salt.

Twelve molecules from EP0611660A2, “Condensed 5-membered heterocycles, process for their preparation and medicines containing these compounds” (Dr. Karl Thomae GmbH, priority 1993, dated 1994) can be followed below.

In this experiment the test system is Thrombozytenaggregation. The experiment is described as follows: Antithrombotic effect: collagen-induced platelet aggregation (Born and Cross) in platelet-rich plasma. In kind it is cell-based. Conditions: human platelet-rich plasma, 10 min preincubation at 37 °C, 50% change of optical density, read-out: Hemmung der Plättchenaggregation EC50. The text has this: 2. Antithrombotische Wirkung: Methodik Die Thrombozytenaggregation wird nach der Methode von Born und Cross (J. Physiol. 170, 397 (1964)) in plättchenreichem Plasma gesunder Versuchspersonen gemessen. Zur Gerinnungshemmung wird das Blut mit Natriumcitrat 3,14 % im Volumenverhältnis 1:10 versetzt. Collagen-induzierte Aggregation Der […] Substanz photometrisch gemessen und registriert. Aus dem Neigungswinkel der Dichtekurve wird auf die Aggregationsgeschwindigkeit geschlossen. Der Punkt der Kurve, bei dem die größte Lichtdurchlässigkeit vorliegt, dient zur Berechnung der "optical density". Die Collagen-Menge wird möglichst gering gewählt, aber doch so, daß sich eine irreversibel verlaufende Reaktionskurve ergibt. Verwendet wird das handelsübliche Collagen der Firma Hormonchemie, München. Vor der Collagen-Zugabe wird das Plasma jeweils 10 Minuten mit der Substanz bei 37 ° C inkubiert. Aus den erhaltenen Meßzahlen wird graphisch eine EC50 bestimmt, die sich auf eine 50%ige Änderung der "optical density" […].

Consider `Cn1c(CCC2CCNCC2)nc2c1c(=O)n(CCCCC(=O)O)c(=O)n2C` [6(12), 1-(4-Carboxy-butyl)-3,7-dimethyl-8-[2-(4-piperidinyl)-ethyl]-xanthin], for which the IC50 came out at 6.4 µM.
With `Cn1c(CCC2CCNCC2)nc2c(=O)n(CCCCC(=O)O)c(=O)n(C)c21` [1(49), 1-(4-Carboxy-butyl)-3,9-dimethyl-8-[2-(4-piperidinyl)-ethyl]-xanthin-dihydrobromid] the figure was 0.15 µM.
The figure for `Cn1c(=O)n(CCCCC(=O)O)c(=O)c2[nH]c([C@H]3CC[C@H](CN)CC3)nc21` [1(64), 8-(trans-4-Aminomethyl-cyclohexyl)-1-(4-carboxy-butyl)-3-methyl-xanthin-dihydrochlorid] is 30 µM; for `Cn1c(C(=O)NC2CCNCC2)nc2cc(C(=O)NCCC(=O)O)ccc21` [1(1), 5-[(2-Carboxy-ethyl)-aminocarbonyl]-1-methyl-2-[(4-piperidinyl)-aminocarbonyl]-benzimidazol-dihydro-bromid] it is above 10 µM.
With `Cn1c(CCC2CCNCC2)nc2cc(C(=O)NCCC(=O)O)ccc21` [Beispiel 1, 5-[(2-Carboxy-ethyl)-aminocarbonyl]-1-methyl-2-[2-(4-piperidinyl)-ethyl]-benzimidazol-dihydrobromid] the figure was 0.43 µM; with `Cn1c(CCC2CCNCC2)nc2cc(C(=O)CCCC(=O)O)ccc21` [1(15), 5-(4-Carboxy-1-oxo-butyl)-1-methyl-2-[2-(4-piperidinyl)-ethyl]-benzimidazol-dihydrobromid], 1.25 µM; with `COC(=O)CCNC(=O)c1ccc2c(c1)nc(CCC1CCNCC1)n2C` [Beispiel 2, 5-[(2-Methoxycarbonyl-ethyl)-aminocarbonyl]-1-methyl-2-[2-(4-piperidinyl)-ethyl]-benzimidazol], 2 µM.
For `O=C(O)CCCCn1c(=O)c2nc(CCC3CCNCC3)n3c2n(c1=O)CCC3` [1(63), 9-(4-Carboxy-butyl)-2-[2-(4-piperidinyl)-ethyl]-8,10-dioxo-5,6-dihydro-4H,9H-pyrimido[1,2,3-cd]purin-dihydrobromid], the IC50 amounted to 4.4 µM.
For `N=C(N)c1ccc(-c2nc3c(=O)n(CCCCC(=O)O)c(=O)n4c3n2CCC4)cc1` [1(61), 2-(4-Amidino-phenyl)-9-(4-carboxy-butyl)-8,10-dioxo-5,6-dihydro-4H,9H-pyrimido[1,2,3-cd]purin-dih-ydrobromid], the IC50 worked out at 0.11 µM.
Take `Cn1c(=O)n(CCCCC(=O)O)c(=O)c2[nH]c(CCC3CCNCC3)nc21` [1(48), 1-(4-Carboxy-butyl)-3-methyl-8-[2-(4-piperidinyl)ethyl]-xanthin-dihydrochlorid]: the IC50 worked out at 0.25 µM.
For `COC(=O)CCCCn1c(=O)c2nc(-c3ccc(C(=N)N)cc3)n3c2n(c1=O)CCC3` [7(12), 2-(4-Amidino-phenyl)-9-(4-methoxycarbonyl-butyl)-8,10-dioxo-5,6-dihydro-4H,9H-pyrimido[1,2,3-cd]-purin], the IC50 came to 0.66 µM.
Consider `Cn1c(-c2ccc(C3CCNCC3)cc2)nc2cc(C=CC(=O)O)ccc21` [1(67), 5-(2-Carboxy-ethenyl)-1-methyl-2-[4-(4-piperidinyl)-phenyl]-benzimidazol-dihydrobromid], for which the IC50 came out at 2.3 µM.
